Measured values: EP1984353B1, “AURORA KINASE MODULATORS AND METHOD OF USE” (Amgen, Inc, priority 2006, dated 2007)
Where two headings read alike, the source gives them in different places.

Columns and labels:
[1] = test system: phosphorylation of Histone H3; assay: HeLa cell 1-hour phospho-histone assay; format: cell-based; conditions: Homo sapiens, HeLa, 1 h, HeLa cells, 1 hour, average, read-out: pHH3 EC50_IP (Avg)
Description: HeLa cell 1-hour phospho-histone assay
The purpose of this assay is to test the inhibitory effect of Aurora compounds with respect to phosphorylation of Histone H3 in the cellular context. HeLa cells (9x10^4/well) are plated in black 96-well flat-bottom tissue culture plates and incubated for 40 hours prior to compound addition. Compounds are serially diluted in DMSO, followed by dilution into MEM containing […] HEPES; 10ul/well of diluted compounds are added to cells (0.5% DMSO final). Cells are incubated for 1 hour at 37 °C in 5% CO2. Cells are then fixed with 3.7% formaldehyde for 10 minutes, washed with wash buffer (1% goat serum and 0.1% Tween 20 in PBS), then permeabilized with 0.5% Triton X in PBS for 15 minutes. After washing with wash buffer, cells are incubated with primary antibody (Upstate #06-507 anti-phospho-histone (Ser 10) antibody (pHH3) for 1 hour at 10ug/ml. After 2 washes with wash buffer, cells are incubated with secondary antibody (Molecular Probes #A11034 goat anti-rabbit Alexa-488 for 1 hour at 1ug/ml + Hoechst 33342 nuclear dye at 1ug/ml (Molecular Probes). Cells are washed 2 times with wash buffer, and buffer replaced with PBS. Plates are scanned on the Cellomics Array Scan (6 fields, ~2000 cells/well) and % of cells that are pHH3 positive were calculated using the Cellomics algorithm.

[2] = target: T1, AuroraB (Homo sapiens, UniProt Q96GD4); assay: AuroraB Homogeneous Time Resolved Fluorescent (HTRF) kinase assay; format: biochemical; conditions: average, read-out: AurB_ _IC50_IP (Avg)
T1 construct: 20 µL of AuroraB FL His; His
Method in brief: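 HTRF read-out: after EDTA stop and ~60 min with europium anti-phospho-H3 antibody and streptavidin-APC, 655/615 nm ratio reports phosphorylation. Reaction: 400 pM AuroraB FL His, 23 µM ATP (at Km(app)), 0.1 µM biotin-Histone H3 peptide, 50 mM HEPES pH 7.5, MgCl/MnCl, ~90 min.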

[3] = target: T2, AuroraA-TPX2 (Homo sapiens, UniProt O14965); assay: AuroraA-TPX2 Homogeneous Time Resolved Fluorescent (HTRF) kinase assay; format: biochemical; conditions: average, read-out: AurA/TP X2_ IC50_IP (Avg)
T2 construct: 20 µL of AuroraA-TPX2 KD GST; GST
T2 sequence (O14965 133-383 limits assumed): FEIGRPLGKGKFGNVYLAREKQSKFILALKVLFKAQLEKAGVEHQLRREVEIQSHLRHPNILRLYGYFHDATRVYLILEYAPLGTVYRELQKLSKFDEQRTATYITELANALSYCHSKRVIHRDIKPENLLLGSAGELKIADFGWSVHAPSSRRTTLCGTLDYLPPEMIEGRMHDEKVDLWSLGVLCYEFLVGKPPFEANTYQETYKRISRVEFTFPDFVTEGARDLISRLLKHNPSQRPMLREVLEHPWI
T2 sequence (Q9ULW0 1-43 partner limits assumed): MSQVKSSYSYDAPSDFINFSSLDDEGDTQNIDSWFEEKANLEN
Method in brief: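 HTRF read-out: europium anti-phosphoPLK antibody (0.02 nM) plus streptavidin-APC detect phosphorylated biotin-PLK after EDTA stop and overnight equilibration. Kinase step runs about 120 min with Aurora-A/TPX2, ATP and roughly 1 µM PLK peptide at pH 7.5 HEPES buffer with Mg2+ and DTT.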

[4] = given as numbers, unit inferred

T1 sequence (Q96GD4 whole entry): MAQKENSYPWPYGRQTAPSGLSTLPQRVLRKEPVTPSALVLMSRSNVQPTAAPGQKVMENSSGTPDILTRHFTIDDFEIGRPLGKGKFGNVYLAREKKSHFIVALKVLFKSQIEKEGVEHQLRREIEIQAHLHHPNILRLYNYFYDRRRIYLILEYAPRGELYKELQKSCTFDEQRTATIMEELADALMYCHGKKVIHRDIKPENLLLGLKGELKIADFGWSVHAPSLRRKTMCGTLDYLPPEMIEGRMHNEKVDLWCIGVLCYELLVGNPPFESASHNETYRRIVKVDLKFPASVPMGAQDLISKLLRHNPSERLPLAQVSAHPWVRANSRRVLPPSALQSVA

SMILES | EC50 ([1]; given as class symbols) [nM] | IC50 ([2]; given as class symbols) [nM] | IC50 ([3]; given as class symbols) [nM] | EC50 [1, 4] [nM] | IC50 [2, 4] [nM] | IC50 [3, 4] [nM]
CN(C)Cc1cccc(-c2nnc(Nc3ccc(Oc4ncccc4-c4ccnc(N)n4)cc3)c3ccccc23)c1 [compound 299, N-(4-((3-(2-amino-4-pyrimidinyl)-2-pyridinyl)oxy)phenyl)-4-(3-((dimethylamino)methyl)phenyl)-1-phthalazinamine] | 500 to 2500 | ≤ 100 | 100 to 500 | – | – | –
Cc1n[nH]cc1-c1cccnc1Oc1ccc(Nc2nnc(-c3ccccc3)c3ccccc23)cc1 [compound 300, N-(4-((3-(3-methyl-1H-pyrazol-4-yl)-2-pyridinyl)oxy)phenyl)-4-phenyl-1-phthalazinamine] | 100 to 500 | 100 to 500 | 100 to 500 | – | – | –
Cc1ccc(-c2nnc(Nc3ccc(Oc4ncccc4-c4c[nH]nc4N)cc3)c3ccccc23)cc1 [compound 301, N-(4-((3-(3-amino-1H-pyrazol-4-yl)-2-pyridinyl)oxy)phenyl)-4-(4-methylphenyl)-1-phthalazinamine] | – | – | – | 166 | 3.1 | 5.5
Cc1cc(-c2ccccc2)nnc1Nc1ccc(Oc2ncccc2-c2c[nH]nc2N)cc1 [compound 302, N-(4-((3-(3-amino-1H-pyrazol-4-yl)-2-pyridinyl)oxy)phenyl)-4-methyl-6-phenyl-3-pyridazinamine] | 500 to 2500 | ≤ 100 | ≤ 100 | – | – | –
Nc1n[nH]cc1-c1cccnc1Oc1ccc(Nc2nnc(Cc3ccccc3)c3ccccc23)cc1 [compound 303, N-(4-((3-(3-amino-1H-pyrazol-4-yl)-2-pyridinyl)oxy)phenyl)-4-(phenylmethyl)-1-phthalazinamine] | – | – | – | 729 | 16.6 | 3.2
Nc1n[nH]cc1-c1cccnc1Oc1ccc(Nc2nnc(-c3ccccc3)c3ccsc23)cc1 [compound 304, N-(4-((3-(3-amino-1H-pyrazol-4-yl)-2-pyridinyl)oxy)phenyl)-4-phenylthieno[2,3-d]pyridazin-7-amine] | – | – | – | 788 | 68.7 | 16.4
Nc1n[nH]cc1-c1cccnc1Oc1ccc(Nc2nnc(-c3cccc(CO)c3)c3ccccc23)cc1 [compound 305, (3-(4-((4-((3-(3-amino-1H-pyrazol-4-yl)-2-pyridinyl)oxy)phenyl)amino)-1-phthalazinyl)phenyl)methanol] | 500 to 2500 | ≤ 100 | ≤ 100 | – | – | –
Nc1n[nH]cc1-c1cccnc1Oc1ccc(Nc2nnc(-c3ccc(Cl)cc3)c3ccccc23)cc1 [compound 306, N-(4-((3-(3-amino-1H-pyrazol-4-yl)-2-pyridinyl)oxy)phenyl)-4-(4-chlorophenyl)-1-phthalazinamine] | 100 to 500 | ≤ 100 | ≤ 100 | – | – | –
Cc1csc(-c2nnc(Nc3ccc(Oc4ncccc4-c4c[nH]nc4N)cc3)c3ccccc23)c1 [compound 307, N-(4-((3-(3-amino-1H-pyrazol-4-yl)-2-pyridinyl)oxy)phenyl)-4-(4-methyl-2-thienyl)-1-phthalazinamine] | 100 to 500 | ≤ 100 | ≤ 100 | – | – | –
Nc1n[nH]cc1-c1cccnc1Oc1ccc(Nc2nnc(-c3ccccc3)c3c2CCCC3)cc1 [compound 308, N-(4-((3-(3-amino-1H-pyrazol-4-yl)-2-pyridinyl)oxy)phenyl)-4-phenyl-5,6,7,8-tetrahydro-1-phthalazinamine] | 500 to 2500 | ≤ 100 | ≤ 100 | – | – | –
Cc1csc(-c2nnc(Nc3ccc(Oc4ncccc4-c4c[nH]nc4N)cc3)c3ccccc23)n1 [compound 309, N-(4-((3-(3-amino-1H-pyrazol-4-yl)-2-pyridinyl)oxy)phenyl)-4-(4-methyl-1,3-thiazol-2-yl)-1-phthalazinamine] | 500 to 2500 | ≤ 100 | ≤ 100 | – | – | –
Cc1csc(-c2nnc(Nc3ccc(Oc4ncccc4-c4ccnc(N)n4)cc3)c3ccccc23)n1 [compound 330, N-(4-((3-(2-amino-4-pyrimidinyl)-2-pyridinyi)oxy)phenyl)-4-(4-methyl-1,3-thiazol-2-yl)-1-phthalazinamine] | ≤ 100 | ≤ 100 | ≤ 100 | – | – | –
Cc1csc(-c2nnc(Nc3ccc(Oc4ncccc4-c4ccnc(N)n4)nc3)c3ccccc23)c1 [compound 332, N-(6-((3-(2-amino-4-pyrimidinyl)-2-pyridinyl)oxy)-3-pyridinyl)-4-(4-methyl-2-thienyl)-1-phthalazinamine] | – | – | – | 3.3 | 1.6 | 5.2
CN1CCN(CCCNc2nccc(-c3cccnc3Oc3ccc(Nc4nnc(-c5ccccc5)c5ccccc45)cc3)n2)CC1 [compound 333, N-(4-((3-(2-((3-(4-methyl-1-piperazinyl)propyl)amino)-4-pyrimidinyl)-2-pyridinyl)oxy)phenyl)-4-phenyl-1-phthalazinamine] | ≤ 100 | ≤ 100 | ≤ 100 | – | – | –
Cc1cc(N2CCCCC2)nnc1Nc1ccc(Oc2ncccc2-c2ccnc(N)n2)cc1 [compound 334, N-(4-((3-(2-amino-4-pyrimidinyl)-2-pyridinyl)oxy)phenyl)-4-methyl-6-(1-piperidinyl)-3-pyridazinamine] | 500 to 2500 | ≤ 100 | 100 to 500 | – | – | –
c1ccc(-c2nnc(Nc3ccc(Oc4ncccc4-c4ccnc(NCC5CCNCC5)n4)cc3)c3ccccc23)cc1 [compound 335, 4-phenyl-N-(4-((3-(2-((4-piperidinylmethyl)amino)-4-pyrimidinyl)-2-pyridinyl)oxy)phenyl)-1-phthalazinamine] | 500 to 2500 | 100 to 500 | 500 to 2500 | – | – | –
CN(C)Cc1ccc(-c2nnc(Nc3ccc(Oc4ncccc4-c4ccnc(N)n4)cc3)c3ccccc23)cc1 [compound 336, N-(4-((3-(2-amino-4-pyrimidinyl)-2-pyridinyl)oxy)phenyl)-4-(4-((dimethylamino)methyl)phenyl)-1-phthalazinamine] | 500 to 2500 | 100 to 500 | 500 to 2500 | – | – | –
OCC(O)CNc1nccc(-c2cccnc2Oc2ccc(Nc3nnc(-c4ccccc4)c4ccccc34)cc2)n1 (stereo not drawn) [compound 337, 3-((4-(2-((4-((4-phenyl-1-phthalazinyl)amino)phenyl)oxy)-3-pyridinyl)-2-pyrimidinyl)amino)-1,2-propanediol] | 100 to 500 | ≤ 100 | ≤ 100 | – | – | –
CN(C)CCCCNc1nccc(-c2cccnc2Oc2ccc(Nc3nnc(-c4ccccc4)c4ccccc34)cc2)n1 [compound 338, N,N-dimethyl-N'-(4-(2-((4-((4-phenyl-1-phthalazinyl)amino)phenyl)oxy)-3-pyridinyl)-2-pyrimidinyl)-1,4-butanediamine] | ≤ 100 | ≤ 100 | ≤ 100 | – | – | –
OCCCNc1nccc(-c2cccnc2Oc2ccc(Nc3nnc(-c4ccccc4)c4ccccc34)cc2)n1 [compound 339, 3-((4-(2-((4-((4-phenyl-1-phthalazinyl)amino)phenyl)oxy)-3-pyridinyl)-2-pyrimidinyl)amino)-1-propanol] | 100 to 500 | ≤ 100 | ≤ 100 | – | – | –
c1ccc(-c2nnc(Nc3ccc(Oc4ncccc4-c4ccnc(NCCCN5CCNCC5)n4)cc3)c3ccccc23)cc1 [compound 340, 4-phenyl-N-(4-((3-(2-((3-(1-piperazinyl)propyl)amino)-4-pyrimidinyl)-2-pyridinyl)oxy)phenyl)-1-phthalazinamine] | 100 to 500 | ≤ 100 | ≤ 100 | – | – | –
OCCN(CCO)CCCNc1nccc(-c2cccnc2Oc2ccc(Nc3nnc(-c4ccccc4)c4ccccc34)cc2)n1 [compound 341, 2,2'-((3-((4-(2-((4-((4-phenyl-1-phthalazinyl)amino)phenyl)oxy)-3-pyridinyl)-2-pyrimidinyl)amino)propyl)imino)diethanol] | 100 to 500 | ≤ 100 | 100 to 500 | – | – | –
